The values below come from ChEMBL document CHEMBL1201862, “PubChem BioAssay data set” (2004).

As a reminder, the EC50 is the concentration giving half of the maximal effect. The IC50 is the concentration that gives 50% inhibition.

Assay [1] concerns Streptococcus sp. 'group A'. The assay can be described thus: growth inhibition of control SK(-) GAS strain, dose response, counter-screen for streptokinase expression inhibitor project, luminescence, kanamycin, BacTiterGlo, confirmation (AID 1900). It counts as functional, organism-based. Background: A counterscreen serves to expose hits that act by an unwanted route or on another target.

In assay [2] the test system is Streptococcus. Kind of assay: Group A Streptococcus viability loss, dose response, counter-screen for streptokinase expression inhibitor project, luminescence, BacTiterGlo (AID 1915).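 Further: potency for reduction of bacterial viability or growth.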 It counts as functional, organism-based.
Assay [3] concerns the target T1, Exodeoxyribonuclease V (Escherichia coli (strain K12), UniProt P04993+P07648+P08394).
T1 sequence (P04993 whole entry): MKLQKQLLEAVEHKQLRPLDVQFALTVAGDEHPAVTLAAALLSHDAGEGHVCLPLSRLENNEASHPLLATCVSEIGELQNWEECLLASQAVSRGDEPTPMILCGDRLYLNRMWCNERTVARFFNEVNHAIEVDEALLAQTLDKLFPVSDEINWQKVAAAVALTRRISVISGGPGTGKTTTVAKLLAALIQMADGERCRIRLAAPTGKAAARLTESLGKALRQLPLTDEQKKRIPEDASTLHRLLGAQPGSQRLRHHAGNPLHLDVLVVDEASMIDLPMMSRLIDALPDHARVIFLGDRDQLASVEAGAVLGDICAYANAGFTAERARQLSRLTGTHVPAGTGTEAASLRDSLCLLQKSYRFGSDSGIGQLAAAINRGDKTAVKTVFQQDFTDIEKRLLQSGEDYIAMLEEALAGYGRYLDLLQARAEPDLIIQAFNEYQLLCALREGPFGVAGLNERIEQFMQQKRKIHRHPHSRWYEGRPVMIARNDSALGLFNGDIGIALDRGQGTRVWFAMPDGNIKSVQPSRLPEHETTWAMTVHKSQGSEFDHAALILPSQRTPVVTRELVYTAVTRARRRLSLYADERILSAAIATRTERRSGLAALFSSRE
T1 sequence (P07648 whole entry): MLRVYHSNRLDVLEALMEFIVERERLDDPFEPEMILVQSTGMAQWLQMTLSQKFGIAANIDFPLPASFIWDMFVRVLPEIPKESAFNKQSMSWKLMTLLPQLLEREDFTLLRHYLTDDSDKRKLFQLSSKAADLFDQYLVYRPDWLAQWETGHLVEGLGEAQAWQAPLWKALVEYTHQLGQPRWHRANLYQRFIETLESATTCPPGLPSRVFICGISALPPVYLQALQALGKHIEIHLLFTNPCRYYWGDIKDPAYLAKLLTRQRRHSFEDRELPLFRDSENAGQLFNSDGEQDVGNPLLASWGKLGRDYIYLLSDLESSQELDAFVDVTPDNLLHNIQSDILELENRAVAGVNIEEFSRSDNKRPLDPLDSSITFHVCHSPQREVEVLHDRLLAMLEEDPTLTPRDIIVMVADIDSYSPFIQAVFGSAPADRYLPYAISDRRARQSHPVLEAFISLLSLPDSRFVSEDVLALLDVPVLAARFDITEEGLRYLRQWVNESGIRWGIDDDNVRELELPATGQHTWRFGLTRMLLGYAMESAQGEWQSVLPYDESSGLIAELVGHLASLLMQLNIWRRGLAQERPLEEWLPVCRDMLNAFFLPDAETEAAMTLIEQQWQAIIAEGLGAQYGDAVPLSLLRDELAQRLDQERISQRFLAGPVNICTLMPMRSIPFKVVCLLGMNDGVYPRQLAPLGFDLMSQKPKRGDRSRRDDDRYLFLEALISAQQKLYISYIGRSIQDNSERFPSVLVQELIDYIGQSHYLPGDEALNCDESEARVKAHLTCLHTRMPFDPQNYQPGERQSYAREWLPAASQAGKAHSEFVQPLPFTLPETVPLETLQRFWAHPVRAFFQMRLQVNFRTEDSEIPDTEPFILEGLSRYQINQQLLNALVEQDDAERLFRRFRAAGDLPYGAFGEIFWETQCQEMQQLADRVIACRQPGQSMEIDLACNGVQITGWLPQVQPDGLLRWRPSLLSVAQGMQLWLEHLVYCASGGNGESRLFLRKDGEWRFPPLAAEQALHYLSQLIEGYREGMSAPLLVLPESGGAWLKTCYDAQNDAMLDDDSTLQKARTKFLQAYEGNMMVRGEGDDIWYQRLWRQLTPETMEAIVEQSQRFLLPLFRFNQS
T1 sequence (P08394 whole entry): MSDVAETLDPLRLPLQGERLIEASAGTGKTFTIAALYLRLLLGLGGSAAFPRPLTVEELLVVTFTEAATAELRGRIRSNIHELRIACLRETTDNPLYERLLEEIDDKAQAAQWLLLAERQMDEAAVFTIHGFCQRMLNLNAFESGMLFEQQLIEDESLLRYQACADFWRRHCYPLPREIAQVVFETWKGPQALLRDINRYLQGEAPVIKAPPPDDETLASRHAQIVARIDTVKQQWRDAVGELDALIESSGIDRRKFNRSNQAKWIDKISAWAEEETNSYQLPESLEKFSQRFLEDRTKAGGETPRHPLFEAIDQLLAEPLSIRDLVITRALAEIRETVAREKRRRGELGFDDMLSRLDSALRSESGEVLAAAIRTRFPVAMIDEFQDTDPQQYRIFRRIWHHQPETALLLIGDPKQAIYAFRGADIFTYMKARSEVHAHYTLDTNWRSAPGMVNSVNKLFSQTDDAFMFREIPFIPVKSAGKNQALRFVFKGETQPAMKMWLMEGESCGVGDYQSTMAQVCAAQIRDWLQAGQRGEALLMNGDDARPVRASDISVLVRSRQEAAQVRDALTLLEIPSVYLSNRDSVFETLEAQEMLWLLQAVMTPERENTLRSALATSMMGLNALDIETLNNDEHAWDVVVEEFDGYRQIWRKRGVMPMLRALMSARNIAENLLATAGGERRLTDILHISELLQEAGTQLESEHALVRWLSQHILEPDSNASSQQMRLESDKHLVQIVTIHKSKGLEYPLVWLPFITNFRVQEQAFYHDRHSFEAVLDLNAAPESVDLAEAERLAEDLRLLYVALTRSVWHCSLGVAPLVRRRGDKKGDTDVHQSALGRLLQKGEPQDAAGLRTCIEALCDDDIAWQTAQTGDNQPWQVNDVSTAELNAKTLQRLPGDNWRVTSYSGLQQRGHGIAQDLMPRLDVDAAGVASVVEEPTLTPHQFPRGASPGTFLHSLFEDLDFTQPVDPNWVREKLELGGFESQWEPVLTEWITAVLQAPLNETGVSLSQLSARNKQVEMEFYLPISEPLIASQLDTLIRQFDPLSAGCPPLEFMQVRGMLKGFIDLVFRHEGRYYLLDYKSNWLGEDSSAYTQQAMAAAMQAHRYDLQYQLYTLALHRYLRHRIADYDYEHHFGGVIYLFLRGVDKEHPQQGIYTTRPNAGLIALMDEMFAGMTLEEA
The assay can be described thus: E. coli RecBCD inhibitors, dose response, counter-screen for AddAB inhibitor project, absorbance, V66 E. coli, mutant T4 phage (AID 492957). The format is functional, cell-based, Escherichia coli str. K-12 substr. MG1655.

Assay [4] can be described thus: C. albicans growth with fluconazole, confirmation, fluorescence, retest (AID 2467). It counts as functional, cell-based.

Calls of active or inactive are those of the source. For most assays here, no stated cut-off is given here; in the data, actives have a measured EC50 and inactives only a lower limit.

`COc1ccc(CC2=CC(=O)c3ccccc3C2=O)cc1`: the results for the concentration giving a half-maximal response (EC50) in assay [1] and in assay [2] were 11.4 µM (active) and 9.74 µM (active), respectively.
Consider `O=C(Nc1cccc(NC(=O)c2ccccc2Cl)c1)c1ccc([N+](=O)[O-])o1`, for which the IC50 in assay [3] is > 119 µM (inactive). The EC50 in assay [1] was 4.47 µM (active); in assay [2], 20.4 µM (inconclusive); in assay [4] it was 2.84 µM (active).
Turning to `Cn1c(O)c(/C=N/NC(=O)c2cc3ccccc3cc2O)c2ccccc21`, the IC50 in assay [3] is > 119 µM (inactive). The EC50 in assay [4] is 2.97 µM (active).
